Test system: recombinant NL4-3 virus (NLRluc, Renilla luciferase in nef, Gag P373S)
Test: HIV Cell Culture Assay (luciferase reporter virus in MT-2 cells)
Assay type: cell-based
Details: NL43, read-out: WT EC50
Description: MT-2 cells and 293T cells were obtained from the NIH AIDS Research and Reference Reagent Program. MT-2 cells were propagated in RPMI 1640 media supplemented with 10% heat inactivated fetal bovine serum, […]. The 293T cells were propagated in DMEM media supplemented with 10% heat inactivated fetal bovine serum (FBS), 100 units/mL penicillin G and 100 μg/mL streptomycin. The proviral DNA clone of NL4-3 was obtained from the NIH AIDS Research and Reference Reagent Program. A recombinant NL4-3 virus, in which a section of the nef gene from NL4-3 was replaced with the Renilla luciferase gene, was used as a reference virus. In addition, residue Gag P373 was converted to P373S. Briefly, the recombinant virus was prepared by transfection of the altered proviral clone of NL4-3. Transfections were performed in 293T cells using LipofectAMINE PLUS from Invitrogen (Carlsbad, Calif.), according to manufacturer's instruction. The virus was titered in MT-2 cells using luciferase enzyme activity as a marker. Luciferase was quantitated using the Dual Luciferase kit from Promega (Madison, Wis.), with modifications to the manufacturer's protocol. The diluted Passive Lysis solution was pre-mixed with the re-suspended Luciferase Assay Reagent and the re-suspended Stop & Glo Substrate (2:1:1 ratio). Fifty (50) […] of the mixture was added to each aspirated well on assay plates and luciferase activity was measured immediately on a Wallac TriLux (Perkin-Elmer). Antiviral activities of inhibitors toward the recombinant virus were quantified by measuring luciferase activity in cells infected for 4-5 days with NLRluc recombinants in the presence serial dilutions of the inhibitor. Biological Data Key for EC50

SMILES | EC50 [µM]
CC(C)[C@@H]1CC[C@]2(C(O)CNCCN(C)C)CC[C@]3(C)[C@H](CC[C@@H]4[C@@]5(C)CC=C(C6=CC[C@](CF)(C(=O)O)CC6)C(C)(C)[C@@H]5CC[C@]43C)[C@@H]12 (single isomer, unassigned) [Example 14] | < 0.1
CC(C)[C@@H]1CC[C@]2([C@H](O)CN(CCN(C)C)Cc3ccc(Cl)cc3)CC[C@]3(C)[C@H](CC[C@@H]4[C@@]5(C)CC=C(C6=CC[C@](CF)(C(=O)O)CC6)C(C)(C)[C@@H]5CC[C@]43C)[C@@H]12 (single isomer, unassigned) [Example 15] | < 0.1
CC(C)[C@@H]1CC[C@]2([C@@H](O)CN(CCN(C)C)Cc3ccc(Cl)cc3)CC[C@]3(C)[C@H](CC[C@@H]4[C@@]5(C)CC=C(C6=CC[C@](CF)(C(=O)O)CC6)C(C)(C)[C@@H]5CC[C@]43C)[C@@H]12 (single isomer, unassigned) [Example 16] | 0.13
C=C(C)[C@@H]1CC[C@]2(/C=C/C(=O)O)CC[C@]3(C)[C@H](CC[C@@H]4[C@@]5(C)CC=C(c6ccc(C(=O)O)cc6)C(C)(C)[C@@H]5CC[C@]43C)[C@@H]12 [Example 1, 4-((1R,3aR,5aR,5bR,7aR,11aS,11bR,13aR,13bR)-3a-((E)-2-carboxyvinyl)-5a,5b,8,8,8,11a-pentamethyl-1-(prop-1-en-2-yl)-2,3,3a,4,5,5a,5b,6,7,7a,8,11,11a,11b,12,13,13a,13b-octadecahydro-1H-cyclopenta[a]chrysen-9-yl)benzoic acid] | 0.02
C=C(C)[C@@H]1CC[C@]2(/C=C/C(=O)NCCN(C)C)CC[C@]3(C)[C@H](CC[C@@H]4[C@@]5(C)CC=C(c6ccc(C(=O)O)cc6)C(C)(C)[C@@H]5CC[C@]43C)[C@@H]12 [Example 2, 4-((1R,3aR,5aR,5bR,7aR,11aS,11bR,13aR,13bR)-3a-((E)-3-((2-(dimethylamino)ethyl)amino)-3-oxoprop-1-en-1-yl)-5a,5b,8,8,11a-pentamethyl-1-(prop-1-en-2-yl)-2,3,3a,4,5,5a,5b,6,7,7a,8,11,11a,11b,12,13,13a,13b-octadecahydro-1H-cyclopenta[a]chrysen-9-yl)benzoic acid] | > 0.1
C=C(C)[C@@H]1CC[C@]2(/C=C/C(=O)N3CCS(=O)(=O)CC3)CC[C@]3(C)[C@H](CC[C@@H]4[C@@]5(C)CC=C(c6ccc(C(=O)O)cc6)C(C)(C)[C@@H]5CC[C@]43C)[C@@H]12 [Example 3, 4-((1R,3aR,5aR,5bR,7aR,11aS,11bR,13aR,13bR)-3a-((E)-3-(1,1-dioxidothiomorpholino)-3-oxoprop-1-en-1-yl)-5a,5b,8,8,11a-pentamethyl-1-(prop-1-en-2-yl)-2,3,3a,4,5,5a,5b,6,7,7a,8,11,11a,11b,12,13,13a,13b-octadecahydro-1H-cyclopenta[a]chrysen-9-yl)benzoic acid] | < 0.1
C=C(C)[C@@H]1CC[C@]2(/C=C/C(=O)NCCCN3CCS(=O)(=O)CC3)CC[C@]3(C)[C@H](CC[C@@H]4[C@@]5(C)CC=C(c6ccc(C(=O)O)cc6)C(C)(C)[C@@H]5CC[C@]43C)[C@@H]12 [Example 4, 4-((1R,3aR,5aR,5bR,7aR,11aS,11bR,13aR,13bR)-3a-((E)-3-((3-(1,1-dioxidothiomorpholino)propyl)amino)-3-oxoprop-1-en-1-yl)-5a,5b,8,8,11a-pentamethyl-1-(prop-1-en-2-yl)-2,3,3a,4,5,5a,5b,6,7,7a,8,11,11a,11b,12,13,13a,13b-octadecahydro-1H-cyclopenta[a]chrysen-9-yl)benzoic acid] | > 0.1
C=C(C)[C@@H]1CC[C@]2(/C=C/C(=O)N(C)OC)CC[C@]3(C)[C@H](CC[C@@H]4[C@@]5(C)CC=C(c6ccc(C(=O)O)cc6)C(C)(C)[C@@H]5CC[C@]43C)[C@@H]12 [Example 5, 4-((1R,3aR,5aR,5bR,7aR,11aS,11bR,13aR,13bR)-3a-((E)-3-(methoxy(methyl)amino)-3-oxoprop-1-en-1-yl)-5a,5b,8,8,11a-pentamethyl-1-(prop-1-en-2-yl)-2,3,3a,4,5,5a,5b,6,7,7a,8,11,11a,11b,12,13,13a,13b-octadecahydro-1H-cyclopenta[a]chrysen-9-yl)benzoic acid] | < 0.1
C=C(C)[C@@H]1CC[C@]2(/C=C/CN3CCS(=O)(=O)CC3)CC[C@]3(C)[C@H](CC[C@@H]4[C@@]5(C)CC=C(c6ccc(C(=O)O)cc6)C(C)(C)[C@@H]5CC[C@]43C)[C@@H]12 [Example 6, 4-((1R,3aR,5aR,5bR,7aR,11aS,11bR,13aR,13bR)-3a-((E)-3-(1,1-dioxidothiomorpholino)prop-1-en-1-yl)-5a,5b,8,8,11a-pentamethyl-1-(prop-1-en-2-yl)-2,3,3a,4,5,5a,5b,6,7,7a,8,11,11a,11b,12,13,13a,13b-octadecahydro-1H-cyclopenta[a]chrysen-9-yl)benzoic acid] | < 0.1
C=C(C)[C@@H]1CC[C@]2(CCC(=O)N3CCS(=O)(=O)CC3)CC[C@]3(C)[C@H](CC[C@@H]4[C@@]5(C)CC=C(c6ccc(C(=O)O)cc6)C(C)(C)[C@@H]5CC[C@]43C)[C@@H]12 [Example 7, 4-((1R,3aR,5aR,5bR,7aR,11aS,11bR,13aR,13bR)-3a-(3-(1,1-dioxidothiomorpholino)-3-oxopropyl)-5a,5b,8,8,11a-pentamethyl-1-(prop-1-en-2-yl)-2,3,3a,4,5,5a,5b,6,7,7a,8,11,11a,11b,12,13,13a,13b-octadecahydro-1H-cyclopenta[a]chrysen-9-yl)benzoic acid] | 0.00566
C=C(C)[C@@H]1CC[C@]2(C(=O)C(=O)NCCCN3CCS(=O)(=O)CC3)CC[C@]3(C)[C@H](CC[C@@H]4[C@@]5(C)CC=C(c6ccc(C(=O)O)cc6)C(C)(C)[C@@H]5CC[C@]43C)[C@@H]12 [Example 8, 4-((1R,3aS,5aR,5bR,7aR,11aS,11bR,13aR,13bR)-3a-(2-((3-(1,1-dioxidothiomorpholino)propyl)amino)-2-oxoacetyl)-5a,5b,8,8,11a-pentamethyl-1-(prop-1-en-2-yl)-2,3,3a,4,5,5a,5b,6,7,7a,8,11,11a,11b,12,13,13a,13b-octadecahydro-1H-cyclopenta[a]chrysen-9-yl)benzoic acid] | < 0.1
C=C(C)[C@@H]1CC[C@]2(C(=O)C(=O)NCCN3CCS(=O)(=O)CC3)CC[C@]3(C)[C@H](CC[C@@H]4[C@@]5(C)CC=C(c6ccc(C(=O)O)cc6)C(C)(C)[C@@H]5CC[C@]43C)[C@@H]12 [Example 9, 4-((1R,3aS,5aR,5bR,7aR,11aS,11bR,13aR,13bR)-3a-(2-((2-(1,1-dioxidothiomorpholino)ethyl)amino)-2-oxoacetyl)-5a,5b,8,8,11a-pentamethyl-1-(prop-1-en-2-yl)-2,3,3a,4,5,5a,5b,6,7,7a,8,11,11a,11b, 12,13,13a,13b-octadecahydro-1H-cyclopenta[a]chrysen-9-yl)benzoic acid] | < 0.1
C=C(C)[C@@H]1CC[C@]2(CCN3CCS(=O)(=O)CC3)CC[C@]3(C)[C@H](CC[C@@H]4[C@@]5(C)CC=C(c6ccc(C(=O)O)cc6)C(C)(C)[C@@H]5CC[C@]43C)[C@@H]12 [Example 10, 4-((1R,3aR,5aR,5bR,7aR,11aS,11bR,13aR,13bR)-3a-(2-(1,1-dioxidothiomorpholino)ethyl)-5a,5b,8,8,11a-pentamethyl-1-(prop-1-en-2-yl)-2,3,3a,4,5,5a,5b,6,7,7a,8,11,11a,11b,12,13,13a,13b-octadecahydro-1H-cyclopenta[a]chrysen-9-yl)benzoic acid] | < 0.1
C=C(C)[C@@H]1CC[C@]2(CCNCCN3CCS(=O)(=O)CC3)CC[C@]3(C)[C@H](CC[C@@H]4[C@@]5(C)CC=C(c6ccc(C(=O)O)cc6)C(C)(C)[C@@H]5CC[C@]43C)[C@@H]12 [Example 11, 4-((1R,3aR,5aR,5bR,7aR,11aS,11bR,13aR,13bR)-3a-(2-((2-(1,1-dioxidothiomorpholino)ethyl)amino)ethyl)-5a,5b,8,8,11a-pentamethyl-1-(prop-1-en-2-yl)-2,3,3a,4,5,5a,5b,6,7,7a,8,11,11a,11b,12,13,13a,13b-octadecahydro-1H-cyclopenta[a]chrysen-9-yl)benzoic acid] | 0.00124
C=C(C)[C@@H]1CC[C@]2(CCN(C)CCN3CCS(=O)(=O)CC3)CC[C@]3(C)[C@H](CC[C@@H]4[C@@]5(C)CC=C(c6ccc(C(=O)O)cc6)C(C)(C)[C@@H]5CC[C@]43C)[C@@H]12 [Example 12, 4-((1R,3aR,5aR,5bR,7aR,11aS,11bR,13aR,13bR)-3a-(2-((2-(1,1-dioxidothiomorpholino)ethyl)(methyl)amino)ethyl)-5a,5b,8,8,11a-pentamethyl-1-(prop-1-en-2-yl)-2,3,3a,4,5,5a,5b,6,7,7a,8,11,11a,11b,12,13,13a,13b-octadecahydro-1H-cyclopenta[a]chrysen-9-yl)benzoic acid] | < 0.1

Source: patent publication US9914747B2 (priority 2014, dated 2018)
